# Measurements published in patent US6608062B1 (dated 2003).
row,SMILES,melting point
1,Cn1ncnc1COc1nc2c(-c3ccc(F)cc3)nncn2c1-c1ccccc1,130 °C
2,Cn1ncnc1COc1nc2c(-c3ccccc3F)nncn2c1C1CCC1,120 °C
3,Cn1cnc(COc2nc3c(-c4ccccc4F)nncn3c2-c2ccccc2)n1,186 °C
4,Cc1nnc(-c2ccccc2)c2nc(OCc3ncnn3C)c(C3CCC3)n12,160 °C
5,Cn1ncnc1COc1nc2c(-c3ccccc3)nncn2c1-c1ccccc1 (hydrate or solvate),179 °C
6,Cn1ncnc1COc1nc2c(-c3cc(F)ccc3F)nncn2c1-c1ccccc1,200 °C
7,Cn1ncnc1COc1nc2c(-c3ccccc3F)nncn2c1-c1ccccc1,195 °C
8,Cn1ncnc1COc1nc2c(-c3c(F)cccc3F)nncn2c1-c1ccccc1,190 °C
9,Cn1ncnc1COc1nc2c(-c3ccccc3)nncn2c1-c1cccc(Cl)c1,80 to 84 °C
10,Cc1nnc(-c2ccccc2)c2nc(OCc3ncnn3C)c(C3CCCC3)n12,137 °C
11,CCn1ncnc1COc1nc2c(-c3ccccc3)nnc(C)n2c1C1CCCC1,94 to 96 °C
